The source of these data is article PMC7567501 (Journal of Enzyme Inhibition and Medicinal Chemistry, 2019).

Data set [1] can be described thus: Fe(III) complexation, UV-vis spectrophotometric titration. Format: physicochemical. The following applies: 25% w/w DMSO/water. On the procedure:
It has been largely accepted that chelators interfere both in metal-induced Aβ aggregation/neurotoxicity and on metal homeostasis of AD brains. Among the hybrids with BF hydroxyl substituent, compound 21 was chosen as a representative model to analyse the concomitant chelating capacity towards the redox-active (Fe(III), Cu(II)) and Aβ-binding (Cu(II)) metal ions. Due to solubility reasons, these studies were performed in a mixed 25% (w/w) DMSO/water medium, In fact, DMSO was chosen because it is a widely used and well tolerated solvent in biological and cellular studies, the amounts of ligand (<7 µM) and DMSO (<1%) employed in culture media being quite low with concomitant no alterations observed in cells.
The chelating ability of compound 21 towards the two metal ions under study (Fe(III) and Cu(II)) was evaluated on the basis of the global formation constants of the complexes, obtained by treatment of the UV-vis spectrophotometric data (see Table 1).
For the metal complexation studies, the aqueous iron (FeCl3, 0.0177 M) and copper (CuCl2, 0.015 M) stock solutions were prepared from 1000 ppm standards (Titrisol) and their metal content was evaluated by atomic absorption. To prevent hydrolysis, the iron stock solution was prepared in excess of acid chloride and its exact concentration in HCl determined by the usual standard-addition method using 0.1 M HCl (Titrisol). The 0.1 M HCl solution, used in spectrophotometric titrations, was prepared from a Titrisol ampoule while the titrant was from carbonate free commercial concentrate (Titrisol, KOH 0.1 M ampoules). The KOH solution was standardised by titration with a solution of potassium hydrogen phthalate and was discarded whenever the percentage of carbonate, determined by Gran’s method, was greater than 0.5% of the total amount of base.
The electronic spectra and the AChE inhibition assays were performed in a 1-cm path length quartz cell with a Perkin Elmer Lambda 35 spectrophotometer equipped with a temperature programmer PTP1 + 1 Peltier System (T = 25.0 ± 0.1 °C). The enzyme AChE 500 U, extracted from Electrophorus electricus (electric eel), was purchased from Sigma-Aldrich.

The target of the next data set is T1, Aβ1-42 (Homo sapiens, UniProt P05067).
T1 construct: Amyloid β-peptide (1–42), Aβ1-42, was purchased from GeneCust; purchased GeneCust
In words: TEM imaging of Aβ aggregation inhibition. To be noted: compound 50 μM, 37 °C, 24 h, pH 6.6. The protocol:
Nevertheless, since quantitative analysis based on fluorescence of copper(II) containing solutions may result in somehow erroneous conclusions due to some potential emission quenching by this paramagnetic ion, a fluorescence-independent study by transmission electron microscopy (TEM) was also performed for compound 21. […] Overall, TEM confirms the role of the ligand in the inhibition of Aβ aggregation.
Figure 6. TEM images of Aβ aggregation inhibition performed with samples incubated (37 °C) for 24 h. Experimental conditions: [Aβ1–42] = [CuCl2] = 25 μM; [21] = 50 μM; pH = 6.6.
For the study of the β-amyloid (Aβ) aggregation, the ThT fluorescence assay was performed using a Varian Cary Eclipse fluorimeter at the following wavelengths: excitation (446 nm) and emission (485 nm). Amyloid β-peptide (1–42), Aβ1-42, was purchased from GeneCust as a lyophilised powder stored at −20 °C. TEM assays were performed with a Hitachi H8100 transmission electron microscope with a LaB6 filament (200 kV, 10000–20000 × magnification) at MicroLab/IST.
The Transmission Electron Microscopy (TEM) is a high resolution technique used to study biological or inorganic samples at 2–3 nm level, through black and white high-quality images. The compound 21 was selected among those with better anti-Aβ aggregation assay. […]

T1 sequence (P05067 672-713 limits assumed): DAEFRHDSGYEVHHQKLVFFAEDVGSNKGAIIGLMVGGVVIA

`O=C(NCCCNc1c2c(nc3ccccc13)CCCC2)c1cc2cccc(O)c2o1` [Compound 21, 7-Hydroxy-N-(3-((1,2,3,4-tetrahydroacridin-9-yl)amino)propyl)benzofuran-2-carboxamide]: in data set [1] (T = 25.0 °C, I = 0.1 M KCl), the “log βFemHhLl, species (1–22)” value is 12.21(8); the “log βFemHhLl, species (103)” value is listed as 36.95(7); the “log βFemHhLl, species (111)” value is given as 22.90(6); the “log βFemHhLl, species (112)” value is recorded as 38.37(6). For the same molecule, in data set [1] (pH 7.4, CL/CM = 10, CM = 10^−6 M), the “pM (pFe) = −log[M]” value is 22.2. In addition, the “TEM morphology of Aβ42 aggregates, self-induced” value at Aβ1-42 ([Aβ1–42] = 25 μM, no copper) is “the aggregates became sparser and more elongated”. Besides, the “TEM morphology of Aβ42 aggregates in presence of copper” value on Aβ1-42 ([Aβ1–42] = [CuCl2] = 25 μM) is “formation of homogenous low molecular aggregates”.
